# pIC50: −log10 of the molar value. Calls of active or inactive are those of the source. No cut-off for these calls is given here.
# Tests used:
# MCF7 = experiment: Cytotoxicity against human MCF7 cells after 72 hrs by CCK8 assay; format: functional, cell-based; conditions: MCF7, 72 h
# HCT-116 = experiment: Cytotoxicity against human HCT116 cells after 72 hrs by CCK8 assay; format: functional, cell-based; conditions: HCT-116, 72 h
# SW1990 = experiment: Cytotoxicity against human SW1990 cells after 72 hrs by CCK8 assay; format: functional, cell-based; conditions: SW1990, 72 h
# HeLa = experiment: Cytotoxicity against human HeLa cells after 72 hrs by CCK8 assay; format: functional, cell-based
# PANC-1 = experiment: Cytotoxicity against human PANC1 cells after 72 hrs by CCK8 assay; format: functional, cell-based; conditions: PANC-1, 72 h
# RAW264.7 = experiment: Inhibition of LPS-induced nitric oxide production in […] RAW264.7 cells at 2.5 to 20 uM pretreated for 2 hrs followed by LPS-stimulation and measured after 20 hrs by Griess assay; format: functional, cell-based
# HEK293 = experiment: Inhibition of TNFalpha-stimulated NFkappaB (unknown origin) expressed in HEK293 cells pretreated for 2 hrs followed by TNFalpha stimulation and measured after 6 hrs by luciferase reporter gene assay; format: cell-based; conditions: Homo sapiens
Compound,pIC50 (MCF7),pIC50 (HCT-116),pIC50 (SW1990),pIC50 (HeLa),pIC50 (PANC-1),inhibition (RAW264.7),inhibition (HEK293)
C=C[C@]1(C)C=C2C(=O)C(O)=C3[C@](C)(COC(=O)C(C)C)[C@H](OC(C)=O)C[C@H]4C[C@@]34[C@@]2(O)CC1,5.85,6.00,6.52,6.15,5.74,,
C=C[C@]1(C)C=C2C(=O)C(O)=C3[C@@]4(O)[C@H](C[C@H](OC(C)=O)[C@]3(C)COC(=O)C(C)C)C[C@]24CC1,4.97,4.90,4.99,4.88,4.92,Active,Dose-dependent effect
C=C[C@]1(C)C=C2C(=O)C(O)=C3[C@](C)(COC(C)=O)[C@H](OC(C)=O)C[C@H]4C[C@@]34[C@@]2(O)CC1,5.39,5.66,5.62,5.51,5.22,,
C=C[C@]1(C)C=C2C(=O)C(=O)[C@H]3[C@](C)(COC(=O)C(C)C)[C@H](OC(C)=O)C[C@H]4C[C@]43[C@@]2(O)CC1,< 4.30,4.53,< 4.30,< 4.30,< 4.30,,
C=C[C@]1(C)C=C2C(=O)[C@H](O)[C@H]3[C@](C)(COC(=O)C(C)C)[C@H](OC(C)=O)C[C@H]4C[C@]43[C@@]2(O)CC1,< 4.30,< 4.30,< 4.30,< 4.30,4.58,,
C=C[C@]1(C)C=C2C(=O)C(O)=C3[C@](C)(COC(=O)C(C)C)[C@H](O)C[C@H]4C[C@@]34[C@@]2(O)CC1,5.96,5.89,6.10,5.92,5.68,,
C=C[C@]1(C)C=C2C(=O)C(O)=C3[C@](C)(COC(=O)CC)[C@H](OC(C)=O)C[C@H]4C[C@@]34[C@@]2(O)CC1,5.54,5.72,6.00,5.59,5.44,,
C=C[C@@]1(C)CCC2=C(C(=O)O[C@@H]3CC[C@@]4(C)COC(=O)[C@@H]4[C@]23C)[C@H]1O,< 4.30,< 4.30,< 4.30,< 4.30,< 4.30,,
C=C[C@]1(C)C=C2C(=O)C(O)=C3[C@@]4(OC)[C@H](C[C@H](OC(C)=O)[C@]3(C)COC(=O)C(C)C)C[C@]24CC1,5.08,5.08,5.10,5.22,5.15,Active,Dose-dependent effect
